Where two headings read alike, the source gives them in different places.
Key:
SARS-CoV2 D614G = type: cell-based, SARS-CoV-2; details: for EC90: read-out: EC90 (mean ± SD)
in vitro = details: human
SARS-CoV-2 D614G = type: cell-based

Compound: CCN(CCO)CCCC(C)Nc1ccnc2cc(Cl)ccc12 (centres unmarked) [Hydroxychloroquin, Hydroxychloroquine]
- Highest % of Virus Inhibition (SARS-CoV2 D614G): 98%
- EC90 (SARS-CoV2 D614G): 18.9 ± 2.3 µM
- CC50 (in vitro): > 100 µM

Compound: O=[N+]([O-])c1ccc(O)c2ncccc12 [Nitroxoline, nitroxoline]
- EC90 (SARS-CoV2 D614G): 9.9 ± 8 µM
- virus entry step (SARS-CoV-2 D614G): inhibited this step similarly to HCQ
- CC50 (in vitro): > 100 µM

Compound: CLIK-148 [CLIK 148]
- CC50 (Huh7-hACE2): > 100 µM
- Highest % of Virus Inhibition (SARS-CoV2 D614G; […], highest concentration tested 100 μM (CLIK-148 60 μM)): 64%
